In ChEMBL document CHEMBL6096738, “Optimization of Single Relaxin B-Chain Peptide Leads to the Identification of R2R01, a Potent, Long-Acting RXFP1 Agonist for Cardiovascular and Renal Diseases” (J Med Chem, 2025):
Starred links: 1 amine or outer side, 2 acyl side, 3 side chain; linkers in the order of their positions; H or OH if unused. Non-standard residues stand in square brackets, D forms with d. Residues, ends and D or L forms follow the SMILES beside them. Groups on a side chain read outwards from the residue. *: point of attachment. X3 = CCCCCCCCCCCCCCCCCC(=O)N[C@@H](CCC(=O)N[C@@H](CCC(=O)N[C@@H](CCC(=O)NCCCOCCOCCOCCCNC(=O)CCC(=O)NCCCOCCOCCOCCCNC(=O)CCC(=O)NCCCOCCOCCOCCCN*)C(=O)O)C(=O)O)C(=O)O; Suc = O=C(CCC(=O)[*:2])[*:1]; Aib = CC(C)(N)C(=O)O

Columns and labels:
[1] = Induction of mast cell degranulation in human LAD2 cells assessed as beta-hexosaminidase release by measuring 4-methylumbelliferyl N-acetyl-beta-D-glucosaminide hydrolysis incubated for 30 mins by plate reader analysis; assay type: toxicity, cell-based; settings: probe 4-methylumbelliferyl N-acetyl-beta-D-glucosaminide
[2] = Induction of mast cell degranulation in human LAD2 cells assessed as beta-hexosaminidase release by measuring maximal efficacy of 4-methylumbelliferyl N-acetyl-beta-D-glucosaminide hydrolysis at 10 uM incubated for 30 mins by plate reader analysis relative to control; assay type: toxicity, cell-based; settings: probe 4-methylumbelliferyl N-acetyl-beta-D-glucosaminide
[3] = target: T1, Relaxin receptor 1 (Homo sapiens) (UniProt Q9HBX9); experiment: Agonist activity at human RXFP1 expressed in 2%HSA treated human OVCAR-5 cells assessed as intracellular cAMP accumulation by measuring maximal efficacy incubated for 30 mins with 2% HSA pretreated compound by HTRF assay relative to control; assay type: functional, cell-based; settings: filed as agonist
T1 sequence (whole entry): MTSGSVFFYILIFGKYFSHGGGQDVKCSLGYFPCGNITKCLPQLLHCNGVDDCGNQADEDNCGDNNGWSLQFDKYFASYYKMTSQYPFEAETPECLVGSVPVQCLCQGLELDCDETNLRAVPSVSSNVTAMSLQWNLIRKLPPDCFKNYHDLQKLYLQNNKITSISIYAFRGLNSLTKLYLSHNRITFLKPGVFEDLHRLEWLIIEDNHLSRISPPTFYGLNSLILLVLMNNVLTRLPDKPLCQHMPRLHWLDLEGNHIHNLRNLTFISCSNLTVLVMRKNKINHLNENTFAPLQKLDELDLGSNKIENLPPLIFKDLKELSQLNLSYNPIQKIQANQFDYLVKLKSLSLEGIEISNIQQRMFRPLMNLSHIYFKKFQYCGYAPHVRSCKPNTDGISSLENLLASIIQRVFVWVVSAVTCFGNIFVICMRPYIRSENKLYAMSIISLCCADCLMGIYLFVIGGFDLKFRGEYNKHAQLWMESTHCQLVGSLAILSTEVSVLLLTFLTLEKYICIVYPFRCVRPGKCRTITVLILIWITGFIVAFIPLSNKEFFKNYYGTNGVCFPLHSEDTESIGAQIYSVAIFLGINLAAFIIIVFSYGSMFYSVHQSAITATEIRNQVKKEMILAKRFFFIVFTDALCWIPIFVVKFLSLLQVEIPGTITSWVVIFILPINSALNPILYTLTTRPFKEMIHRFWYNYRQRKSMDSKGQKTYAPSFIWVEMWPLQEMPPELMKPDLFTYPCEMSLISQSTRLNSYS

[4] = target: T1, Relaxin receptor 1 (Homo sapiens); experiment: Agonist activity at human RXFP1 expressed in human OVCAR-5 cells assessed as intracellular cAMP accumulation by measuring maximal efficacy incubated for 30 mins by HTRF assay relative to control; assay type: functional, cell-based; settings: filed as agonist
Relaxin receptor 1 [5] = target: T2, Relaxin receptor 1 (Homo sapiens, UniProt Q9HBX9); experiment: Agonist activity at human RXFP1 expressed in 2%HSA treated human OVCAR-5 cells assessed as intracellular cAMP accumulation incubated for 30 mins with 2% HSA pretreated compound by HTRF assay; assay type: functional, cell-based
T2 sequence (Q9HBX9 whole entry): T1 sequence (whole entry)

Relaxin receptor 1 [6] = target: T2, Relaxin receptor 1; experiment: Agonist activity at human RXFP1 expressed in human OVCAR-5 cells assessed as intracellular cAMP accumulation incubated for 30 mins by HTRF assay; assay type: functional, cell-based
[7] = Half-life in male Sprague-Dawley rat at 1 mg/kg, iv measured after 198 hrs by LC-HRMS analysis; assay type: ADME, organism-based; settings: in vivo

Emax [3] [%]	Emax [4] [%]	EC50 (Relaxin receptor 1 [5]) [nM]	EC50 (Relaxin receptor 1 [6]) [nM]	half-life [7] [min]	SMILES	EC50 at 30 min [1] [µM]	Emax at 0.5 h, 10 µM [2] [%]
–	–	–	–	–	CC[C@H](C)[C@H](NC(=O)[C@H](Cc1ccccc1)NC(=O)[C@H](CCC(=O)O)NC(=O)[C@H](CCCCN)NC(=O)[C@H](C)NC(=O)[C@H](C)NC(=O)[C@H](CCC(N)=O)NC(=O)CNC(=O)[C@H](CCC(=O)O)NC(=O)[C@H](CC(C)C)NC(=O)[C@H](Cc1ccc(O)cc1)NC(=O)[C@H](CO)NC(=O)[C@H](CO)NC(=O)[C@@H](NC(=O)[C@H](CC(=O)O)NC(=O)[C@H](CO)NC(=O)[C@@H](NC(=O)[C@H](Cc1ccccc1)NC(=O)[C@@H](NC(=O)CNC(=O)[C@H](CCC(=O)O)NC(=O)[C@H](C)NC(=O)[C@@H](N)Cc1c[nH]cn1)[C@@H](C)O)[C@@H](C)O)C(C)C)C(=O)N[C@@H](C)C(=O)N[C@@H](Cc1c[nH]c2ccccc12)C(=O)N[C@@H](CC(C)C)C(=O)N[C@H](C(=O)N[C@@H](CCCCN)C(=O)NCC(=O)N[C@@H](CCCNC(=N)N)C(N)=O)C(C)C	[…]	2.5
73	78	132	6.2	–	CCCCCCCCCCCCCCCC(=O)N[C@@H](CCC(=O)N[C@@H](CCC(=O)N[C@@H](CCC(=O)NC(=O)CCOCCOCCOCCOCCOCCOCCOCCOCCOCCOCCOCCOCCNCCCC[C@H](NC(=O)[C@H](C)NC(=O)[C@H](CCCNC(=N)N)NC(=O)[C@@H](NC(=O)[C@H](CCCCN)NC(=O)[C@H](CCC(=O)O)NC(=O)[C@H](CCCNC(=N)N)NC(=O)CNC(=O)[C@H](CCC(=O)O)NC(=O)[C@H](CC(C)C)NC(C)=O)C(C)C)C(=O)N[C@H](C(=O)NC(C)(C)C(=O)NC(C)(C)C(=O)N[C@@H](CCC(=O)O)C(=O)NCC(=O)N[C@@H](CCCC)C(=O)N[C@@H](CO)C(=O)N[C@H](C(=O)N[C@@H](Cc1c[nH]c2ccccc12)C(=O)N[C@@H](CO)C(=O)NC(C)(C)C(=O)N[C@@H](CCCNC(=N)N)C(=O)N[C@@H](CCCCN)C(=O)N[C@@H](CCCCNC(C)=O)C(N)=O)[C@@H](C)O)[C@@H](C)CC)C(=O)O)C(=O)O)C(=O)O	2.42	59.7
97	96	10.8	0.2	308	CCCCCCCCCCCCCCCCCC(=O)N[C@@H](CCC(=O)N[C@@H](CCC(=O)N[C@@H](CCC(=O)NCCCOCCOCCOCCCNC(=O)CCC(=O)NCCCOCCOCCOCCCNC(=O)CCC(=O)NCCCOCCOCCOCCCNC(=O)CCC(=O)NCCCC[C@H](NC(=O)CNC(=O)[C@H](CCC(=O)O)NC(=O)C(C)(C)NC(=O)C(C)(C)NC(=O)[C@@H](NC(=O)[C@H](CCCCNC(C)=O)NC(=O)[C@H](C)NC(=O)[C@H](CCCNC(=N)N)NC(=O)[C@@H](NC(=O)[C@H](CCCCN)NC(=O)[C@H](CCC(=O)O)NC(=O)[C@H](CCCNC(=N)N)NC(=O)CNC(=O)[C@H](CCC(=O)O)NC(=O)[C@H](CC(C)C)NC(C)=O)C(C)C)[C@@H](C)CC)C(=O)N[C@@H](CO)C(=O)N[C@H](C(=O)N[C@@H](Cc1c[nH]c2ccccc12)C(=O)N[C@@H](CO)C(=O)NC(C)(C)C(=O)N[C@@H](CCCNC(=N)N)C(=O)N[C@@H](CCCCN)C(=O)N[C@@H](CCCCNC(C)=O)C(N)=O)[C@@H](C)O)C(=O)O)C(=O)O)C(=O)O (Ac-LEGREKVRAK(Ac)I[Aib][Aib]EGK([Suc-X3])STWS[Aib]RKK(Ac)-NH2)	6.43	70
